In US7294635B2 (Portola Pharmaceuticals, Inc., priority 2003, dated 2007):
Like-named read-outs stand apart in the source and are kept apart here.

Test system: ADP-induced human platelet aggregation
Experiment: Inhibition of ADP-mediated platelet aggregation in vitro using platelet-rich plasma (PRP assay)
Type: cell-based
Conditions: 5 min, read-out: Activity in the PRP assay
Method: This Example Provides an Assay for the Inhibition of ADP-Mediated Platelet Aggregation In Vitro Using Platelet-Rich Plasma (PRP)
Platelet-rich plasma (PRP) is prepared by centrifugation at 160×g for 20 minutes at room temperature. PRP is collected, and the platelet concentration is determined using a Coulter counter or hemocytometer (platelet concentration should be 2-4×10^8 platelets per mL).
Inhibition of ADP-dependent aggregation is preferably determined in 96-well flat-bottom microtiter plates using a microtiter plate shaker and plate reader similar to the procedure described by Frantantoni et al., Am. J. Clin. Pathol. […] All steps are performed at room temperature. The total reaction volume of 0.2 mL/well includes: PRP (˜6×10^7 total platelets in the presence of plasma), serial dilutions of test compounds (buffer for control wells) in 0.6% DMSO. After about 5 minutes preincubation at room temperature, ADP is added to a final concentration of 2 μM which induces submaximal aggregation. Buffer is added instead of ADP to one set of control wells (ADP-control). The OD of the samples is then determined at 650 nm using a microtiter plate reader (Softmax, Molecular Devices, Menlo Park, Calif.) resulting in the 0 minute reading. The plates are then agitated for 5 min on a microtiter plate shaker and the 5 minute reading is obtained in the plate reader. Aggregation is calculated from the decrease of OD at 650 nm at t=5 minutes compared to t=0 minutes and is expressed as % of the decrease in the ADP control samples after correcting for changes in the unaggregated control samples.

[1] = human platelet-rich plasma, 2 μM ADP, 96-well microtiter, OD 650 nm at 5 min

Row | SMILES | IC50 [1] | IC50 (Homo sapiens, Platelet)
1 | CNc1cc2ccn(-c3ccc(NC(=O)NS(=O)(=O)c4ccc(Cl)s4)cc3)c(=O)c2cc1F [Example 10, 5-chloro-N-[({4-[7-fluoro-6-(methylamino)-1-oxoisoquinolin-2(1H)-yl]phenyl}amino)carbonyl]thiophene-2-sulfonamide] | < 10 µM | –
2 | O=C(Nc1ccc(-n2ccc3cc(NC4CC4)c(F)cc3c2=O)cc1)NS(=O)(=O)c1ccc(Cl)s1 [Example 13, 5-chloro-N-[({4-[6-(cyclopropylamino)-7-fluoro-1-oxoisoquinolin-2(1H)-yl]phenyl}amino)carbonyl]thiophene-2-sulfonamide] | 10 to 30 µM | –
3 | O=CNc1cc2ccn(-c3ccc(NC(=O)NS(=O)(=O)c4ccc(Cl)s4)cc3)c(=O)c2cc1F [Example 14, 5-chloro-N-[({4-[7-fluoro-6-(formylamino)-1-oxoisoquinolin-2(1H)-yl]phenyl}amino)carbonyl]thiophene-2-sulfonamide] | > 30 µM | –
4 | CCNc1cc2ccn(-c3ccc(NC(=O)NS(=O)(=O)c4ccc(Cl)s4)cc3)c(=O)c2cc1F [Example 19, 5-chloro-N-[({4-[6-(ethylamino)-7-fluoro-1-oxoisoquinolin-2(1H)-yl]phenyl}amino)carbonyl]thiophene-2-sulfonamide] | – | < 10 µM
5 | O=C(Nc1ccc(-n2ccc3cc(NCCF)c(F)cc3c2=O)cc1)NS(=O)(=O)c1ccc(Cl)s1 [Example 20, 5-chloro-N-[({4-[7-fluoro-6-[(2-fluoroethyl)amino]-1-oxoisoquinolin-2(1H)-yl]phenyl}amino)carbonyl]thiophene-2-sulfonamide] | < 10 µM | –
6 | O=C(Nc1ccc(-n2ccc3cc(NCC(F)(F)F)c(F)cc3c2=O)cc1)NS(=O)(=O)c1ccc(Cl)s1 [Example 21, 5-chloro-N-[({4-[7-fluoro-1-oxo-6-[(2,2,2-trifluoroethyl)amino]isoquinolin-2(1H)-yl]phenyl}amino)carbonyl]thiophene-2-sulfonamide] | 10 to 30 µM | –
7 | C#CCNc1cc2ccn(-c3ccc(NC(=O)NS(=O)(=O)c4ccc(Cl)s4)cc3)c(=O)c2cc1F [Example 22, 5-chloro-N-[({4-[7-fluoro-1-oxo-6-(prop-2-ynylamino)isoquinolin-2(1H)-yl]phenyl}amino)carbonyl]thiophene-2-sulfonamide] | < 10 µM | –
8 | O=C(Nc1ccc(-n2ccc3cc(NCc4ccc(Cl)cc4)c(F)cc3c2=O)cc1)NS(=O)(=O)c1ccc(Cl)s1 [Example 23, 5-chloro-N-[({4-[6-[(4-chlorobenzyl)amino]-7-fluoro-1-oxoisoquinolin-2(1H)-yl]phenyl}amino)carbonyl]thiophene-2-sulfonamide] | < 10 µM | –
9 | CN(C)c1cc2ccn(-c3ccc(NC(=O)NS(=O)(=O)c4ccc(Cl)s4)cc3)c(=O)c2cc1F [Example 26, 5-chloro-N-[({4-[6-(dimethylamino)-7-fluoro-1-oxoisoquinolin-2(1H)-yl]phenyl}amino)carbonyl]thiophene-2-sulfonamide] | > 30 µM | –
10 | CNc1cc2ccn(-c3ccc(NC(=O)NS(=O)(=O)c4cccs4)cc3)c(=O)c2cc1F [Example 27, N-[({4-[7-fluoro-6-(methylamino)-1-oxoisoquinolin-2(1H)-yl]phenyl}amino)carbonyl]thiophene-2-sulfonamide] | < 10 µM | –
11 | CNc1cc2ccn(-c3ccc(NC(=O)NS(=O)(=O)c4ccc(Br)s4)cc3)c(=O)c2cc1F [Example 28, 5-bromo-N-[({4-[7-fluoro-6-(methylamino)-1-oxoisoquinolin-2(1H)-yl]phenyl}amino)carbonyl]thiophene-2-sulfonamide] | < 10 µM | –
12 | CNc1cc2ccn(-c3ccc(NC(=O)NS(=O)(=O)c4ccc(C)s4)cc3)c(=O)c2cc1F [Example 29] | < 10 µM | –
13 | CCc1ccc(S(=O)(=O)NC(=O)Nc2ccc(-n3ccc4cc(NC)c(F)cc4c3=O)cc2)s1 [Example 30] | < 10 µM | –
14 | CCCc1ccc(S(=O)(=O)NC(=O)Nc2ccc(-n3ccc4cc(NC)c(F)cc4c3=O)cc2)s1 [Example 31] | 10 to 30 µM | –
15 | CNc1cc2ccn(-c3ccc(NC(=O)NS(=O)(=O)c4ccc(C(F)F)s4)cc3)c(=O)c2cc1F [Example 32] | < 10 µM | –
16 | CNc1cc2ccn(-c3ccc(NC(=O)NS(=O)(=O)c4ccc(C#N)s4)cc3)c(=O)c2cc1F [Example 33] | 10 to 30 µM | –
17 | CNc1cc2ccn(-c3ccc(NC(=O)NS(=O)(=O)c4ccc(OC)s4)cc3)c(=O)c2cc1F [Example 34] | < 10 µM | –
18 | C#Cc1ccc(S(=O)(=O)NC(=O)Nc2ccc(-n3ccc4cc(NC)c(F)cc4c3=O)cc2)s1 [Example 35] | < 10 µM | –

Row | SMILES | IC50 [1] | IC50 (Homo sapiens, Platelet)
19 | CNc1cc2ccn(-c3ccc(NC(=O)NS(=O)(=O)c4cc(Cl)cs4)cc3)c(=O)c2cc1F [Example 37] | < 10 µM | –
20 | CNc1cc2ccn(-c3ccc(NC(=O)NS(=O)(=O)c4cc(C)cs4)cc3)c(=O)c2cc1F [Example 38] | < 10 µM | –
21 | CNc1cc2ccn(-c3ccc(NC(=O)NS(=O)(=O)c4cc(C(F)F)cs4)cc3)c(=O)c2cc1F [Example 39] | 10 to 30 µM | –
22 | CNc1cc2ccn(-c3ccc(NC(=O)NS(=O)(=O)c4sccc4Cl)cc3)c(=O)c2cc1F [Example 40] | > 30 µM | –
23 | CNc1cc2ccn(-c3ccc(NC(=O)NS(=O)(=O)c4sccc4C)cc3)c(=O)c2cc1F [Example 41] | 10 to 30 µM | –
24 | CNc1cc2ccn(-c3ccc(NC(=O)NS(=O)(=O)c4ccccc4)cc3)c(=O)c2cc1F [Example 42] | < 10 µM | –
25 | CNc1cc2ccn(-c3ccc(NC(=O)NS(=O)(=O)c4ccc(Cl)s4)cc3F)c(=O)c2cc1F [Example 49, 5-chloro-N-[({3-fluoro-4-[7-fluoro-6-(methylamino)-1-oxoisoquinolin-2(1H)-yl]phenyl}amino)carbonyl]thiophene-2-sulfonamide] | < 10 µM | –
26 | CNc1cc2ccn(-c3ccc(NC(=O)NS(=O)(=O)c4ccc(Cl)s4)cc3Cl)c(=O)c2cc1F [Example 50, 5-chloro-N-[({3-chloro-4-[7-fluoro-6-(methylamino)-1-oxoisoquinolin-2(1H)-yl]phenyl}amino)carbonyl]thiophene-2-sulfonamide] | < 10 µM | –
27 | CNc1cc2ccn(-c3ccc(NC(=O)NS(=O)(=O)c4ccc(Cl)s4)cc3Br)c(=O)c2cc1F [Example 51, N-[({3-bromo-4-[7-fluoro-6-(methylamino)-1-oxoisoquinolin-2(1H)-yl]phenyl}amino)carbonyl]-5-chlorothiophene-2-sulfonamide] | < 10 µM | –
28 | CNc1cc2ccn(-c3ccc(NC(=O)NS(=O)(=O)c4ccc(Cl)s4)cc3C)c(=O)c2cc1F [Example 52, 5-chloro-N-[({4-[7-fluoro-6-(methylamino)-1-oxoisoquinolin-2(1H)-yl]-3-methylphenyl}amino)carbonyl]thiophene-2-sulfonamide] | < 10 µM | –
29 | CNc1cc2ccn(-c3ccc(NC(=O)NS(=O)(=O)c4ccc(Cl)s4)c(C)c3)c(=O)c2cc1F [Example 53, 5-chloro-N-[({4-[7-fluoro-6-(methylamino)-1-oxoisoquinolin-2(1H)-yl]-2-methylphenyl}amino)carbonyl]thiophene-2-sulfonamide] | < 10 µM | –
30 | CNc1cc2ccn(-c3ccc(NC(=O)NS(=O)(=O)c4ccc(Cl)s4)cn3)c(=O)c2cc1F [Example 54, 5-chloro-N-[({6-[7-fluoro-6-(methylamino)-1-oxoisoquinolin-2(1H)-yl]pyridin-3-yl}amino)carbonyl]thiophene-2-sulfonamide] | < 10 µM | –
31 | CNc1cc2ccn(-c3ccc(NC(=O)NS(=O)(=O)c4ccc(Cl)s4)c(C)n3)c(=O)c2cc1F [Example 55, 5-chloro-N-[({6-[7-fluoro-6-(methylamino)-1-oxoisoquinolin-2(1H)-yl]-2-methylpyridin-3-yl}amino)carbonyl]thiophene-2-sulfonamide] | < 10 µM | –
32 | CNc1cc2ccn(-c3cc(C)c(NC(=O)NS(=O)(=O)c4ccc(Cl)s4)cn3)c(=O)c2cc1F [Example 56, 5-chloro-N-[({6-[7-fluoro-6-(methylamino)-1-oxoisoquinolin-2(1H)-yl]-4-methylpyridin-3-yl}amino)carbonyl]thiophene-2-sulfonamide] | < 10 µM | –
33 | CNc1cc2ccn(-c3ncc(NC(=O)NS(=O)(=O)c4ccc(Cl)s4)cc3C)c(=O)c2cc1F [Example 57, 5-chloro-N-[({6-[7-fluoro-6-(methylamino)-1-oxoisoquinolin-2(1H)-yl]-5-methylpyridin-3-yl}amino)carbonyl]thiophene-2-sulfonamide] | > 30 µM | –
34 | CNc1cc2ccn(-c3ccc(NC(=O)NS(=O)(=O)c4ccc(Cl)s4)c(F)c3)c(=O)c2cc1F [Example 58, 5-chloro-N-[({2-fluoro-4-[7-fluoro-6-(methylamino)-1-oxoisoquinolin-2(1H)-yl]phenyl}amino)carbonyl]thiophene-2-sulfonamide] | < 10 µM | –
35 | CNc1cc2ccn(-c3ccc(NC(=O)NS(=O)(=O)c4ccc(Cl)s4)nc3)c(=O)c2cc1F [Example 59, 5-chloro-N-[({5-[7-fluoro-6-(methylamino)-1-oxoisoquinolin-2(1H)-yl]pyridin-2-yl}amino)carbonyl]thiophene-2-sulfonamide] | < 10 µM | –
